From patent publication US10308643B2, “Heterocyclic compound” (Takeda Pharmaceutical Company Limited, priority 2015, dated 2019) come the findings set out here.

Holding throughout (type): biochemical
The target of one assay is T1, HDAC9 enzyme (Homo sapiens, UniProt Q9UKV0).
T1 construct: transducing full length HDAC9 gene into Sf-9 insect cells; made in house; host or cells: Sf-9 insect cells
Description: HDAC9 Enzyme Inhibitory Assay (HDAC-Glo class IIa). Particulars: 1 μM test compound, wells without enzyme = 100% inhibition; for inhibition at 1 µM: read-out: HDAC9 inhibitory rate (%) (1 μM). The essentials: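 Full-length human HDAC9 from Sf-9 cells, Ni-NTA purified, preincubated with compound for 60 min at room temperature in Tris-HCl pH 7.5 buffer (MgCl2, KCl, NaCl, glutathione, Tween-20). HDAC-Glo class IIa substrate-developer added; luminescence read after 20 min, with no-enzyme wells defining 100% inhibition.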

The next assay deals with T2, HDAC1 enzyme (Homo sapiens, UniProt Q13547).
T2 construct: transducing full length HDAC1 and HDAC6 genes into Sf-9 insect cells; GST; purchased SignalChem; host or cells: Sf-9 insect cells
T2 sequence (Q13547 whole entry): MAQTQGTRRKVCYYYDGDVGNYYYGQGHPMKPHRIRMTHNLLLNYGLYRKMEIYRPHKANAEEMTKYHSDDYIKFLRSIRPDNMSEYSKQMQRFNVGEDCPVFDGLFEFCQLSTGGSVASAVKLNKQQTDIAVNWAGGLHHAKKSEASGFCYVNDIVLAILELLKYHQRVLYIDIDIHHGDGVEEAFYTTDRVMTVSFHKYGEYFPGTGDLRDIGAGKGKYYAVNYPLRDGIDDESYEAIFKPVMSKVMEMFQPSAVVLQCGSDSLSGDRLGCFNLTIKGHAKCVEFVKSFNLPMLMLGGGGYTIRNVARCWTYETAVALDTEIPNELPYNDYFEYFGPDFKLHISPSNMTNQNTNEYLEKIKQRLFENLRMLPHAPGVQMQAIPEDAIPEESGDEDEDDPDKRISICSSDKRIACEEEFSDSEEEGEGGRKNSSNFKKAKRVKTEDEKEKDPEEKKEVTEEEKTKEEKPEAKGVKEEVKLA
Kind of assay: HDAC1/6 Enzyme Inhibitory Assay (HDAC-Glo I/II Assay kit), HDAC1. To be noted: 1 μM test compound, wells without enzyme = 100% inhibition; for inhibition at 1 µM: read-out: HDAC1 inhibitory rate (%) (1 μM). Put shortly:
(§1)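 Enzyme source: full-length HDAC1/HDAC6, Sf-9, GST-purified. Assay buffer 24 mM Tris-HCl (pH 7.5), 1 mM MgCl2, 0.35 mM KCl, 135 mM NaCl. Compound–enzyme 60 min RT, then HDAC-Glo reagent 20 min RT, luminescence; inhibition relative to no-enzyme control.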

Another assay deals with T3, HDAC6 enzyme (Homo sapiens, UniProt Q9UBN7).
T3 construct: transducing full length HDAC1 and HDAC6 genes into Sf-9 insect cells; GST; purchased SignalChem; host or cells: Sf-9 insect cells
T3 sequence (Q9UBN7 1-1215): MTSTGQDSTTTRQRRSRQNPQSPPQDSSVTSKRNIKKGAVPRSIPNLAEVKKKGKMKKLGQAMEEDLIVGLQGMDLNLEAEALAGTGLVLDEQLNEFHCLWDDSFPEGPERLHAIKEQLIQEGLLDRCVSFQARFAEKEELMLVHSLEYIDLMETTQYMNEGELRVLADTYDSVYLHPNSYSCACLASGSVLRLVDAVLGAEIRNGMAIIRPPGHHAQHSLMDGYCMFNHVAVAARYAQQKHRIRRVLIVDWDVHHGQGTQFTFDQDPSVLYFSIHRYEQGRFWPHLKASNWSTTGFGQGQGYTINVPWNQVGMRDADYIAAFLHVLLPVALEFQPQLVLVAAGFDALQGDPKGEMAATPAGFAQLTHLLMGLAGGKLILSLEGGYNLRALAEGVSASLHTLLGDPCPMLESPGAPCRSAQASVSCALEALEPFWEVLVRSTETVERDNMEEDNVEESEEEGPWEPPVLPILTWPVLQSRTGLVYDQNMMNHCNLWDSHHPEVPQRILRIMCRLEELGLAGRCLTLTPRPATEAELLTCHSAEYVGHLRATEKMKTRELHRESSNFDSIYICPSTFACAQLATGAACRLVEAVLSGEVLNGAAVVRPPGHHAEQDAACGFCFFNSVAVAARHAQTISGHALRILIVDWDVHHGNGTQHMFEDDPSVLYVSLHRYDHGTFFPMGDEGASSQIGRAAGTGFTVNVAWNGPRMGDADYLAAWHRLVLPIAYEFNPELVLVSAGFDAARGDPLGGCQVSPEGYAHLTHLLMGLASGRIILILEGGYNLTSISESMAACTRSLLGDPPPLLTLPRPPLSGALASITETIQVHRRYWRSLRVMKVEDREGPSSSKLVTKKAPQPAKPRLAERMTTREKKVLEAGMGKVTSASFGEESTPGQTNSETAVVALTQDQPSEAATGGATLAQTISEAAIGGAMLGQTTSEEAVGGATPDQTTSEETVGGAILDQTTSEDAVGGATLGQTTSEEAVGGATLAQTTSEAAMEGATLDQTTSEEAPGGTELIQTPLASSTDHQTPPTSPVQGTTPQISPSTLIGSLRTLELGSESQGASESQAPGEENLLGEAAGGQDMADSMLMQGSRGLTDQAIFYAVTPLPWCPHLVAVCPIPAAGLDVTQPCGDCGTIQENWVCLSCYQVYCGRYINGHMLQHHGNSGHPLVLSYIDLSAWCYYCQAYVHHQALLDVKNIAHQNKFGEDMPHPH
Description: HDAC1/6 Enzyme Inhibitory Assay (HDAC-Glo I/II Assay kit), HDAC6. To be noted: 1 μM test compound, wells without enzyme = 100% inhibition; for inhibition at 1 µM: read-out: HDAC6 inhibitory rate (%) (1 μM). The essentials:
as §1

T1 sequence (Q9UKV0 whole entry, species assumed): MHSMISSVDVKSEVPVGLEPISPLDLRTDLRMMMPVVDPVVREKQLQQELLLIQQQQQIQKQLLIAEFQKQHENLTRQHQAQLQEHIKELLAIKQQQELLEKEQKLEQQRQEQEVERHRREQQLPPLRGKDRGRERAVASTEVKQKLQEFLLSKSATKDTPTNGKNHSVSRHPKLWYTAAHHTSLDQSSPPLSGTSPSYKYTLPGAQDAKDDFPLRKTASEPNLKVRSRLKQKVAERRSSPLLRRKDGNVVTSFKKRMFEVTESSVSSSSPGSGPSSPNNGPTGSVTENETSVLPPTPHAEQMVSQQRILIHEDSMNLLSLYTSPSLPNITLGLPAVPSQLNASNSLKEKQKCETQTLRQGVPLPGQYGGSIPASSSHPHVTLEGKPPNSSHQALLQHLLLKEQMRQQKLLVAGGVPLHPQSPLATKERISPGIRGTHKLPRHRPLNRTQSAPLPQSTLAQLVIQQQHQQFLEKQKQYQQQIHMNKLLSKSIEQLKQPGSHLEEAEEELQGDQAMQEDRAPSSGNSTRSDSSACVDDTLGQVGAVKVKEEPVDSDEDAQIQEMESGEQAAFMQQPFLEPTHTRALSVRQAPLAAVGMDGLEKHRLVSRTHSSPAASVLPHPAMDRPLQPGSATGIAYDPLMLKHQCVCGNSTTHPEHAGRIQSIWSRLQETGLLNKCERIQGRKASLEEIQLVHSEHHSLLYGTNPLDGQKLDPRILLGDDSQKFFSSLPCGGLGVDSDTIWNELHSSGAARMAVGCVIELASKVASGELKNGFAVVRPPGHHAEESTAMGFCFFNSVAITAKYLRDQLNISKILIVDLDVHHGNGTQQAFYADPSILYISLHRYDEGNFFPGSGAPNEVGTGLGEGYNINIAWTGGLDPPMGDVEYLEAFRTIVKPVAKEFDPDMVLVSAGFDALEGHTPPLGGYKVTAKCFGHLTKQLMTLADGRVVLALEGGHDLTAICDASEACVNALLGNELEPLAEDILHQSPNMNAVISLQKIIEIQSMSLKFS

With `O=C(N[C@@H]1CCCC[C@H]1N1Cc2ccc(-c3noc(C(F)(F)F)n3)cc2C1=O)N1CC2CCC(C1)O2` [Example 146, N-((1R,2R)-2-(1-oxo-6-(5-(trifluoromethyl)-1,2,4-oxadiazol-3-yl)-1,3-dihydro-2H-isoindol-2-yl)cyclohexyl)-8-oxa-3-azabicyclo[3.2.1]octane-3-carboxamide], the results for the inhibition at 1 µM at HDAC9 enzyme, on HDAC1 enzyme and at HDAC6 enzyme were 23%, 2% and 99%, respectively.

As for `O=C(N[C@@H]1CCCC[C@H]1N1Cc2ccc(-c3noc(C(F)(F)F)n3)cc2C1=O)[C@@H]1CC1(F)F` [Example 147, (1S)-2,2-difluoro-N-((1R,2R)-2-(1-oxo-6-(5-(trifluoromethyl) -1,2,4-oxadiazol-3-yl)-1,3-dihydro-2H-isoindol-2-yl)cyclohexyl)cyclopropanecarboxamide], the inhibition at 1 µM at HDAC9 enzyme is 51%; at HDAC1 enzyme, 6%; at HDAC6 enzyme, 99%.

For `O=C(N[C@@H]1CCCC[C@H]1N1Cc2ccc(-c3noc(C(F)(F)F)n3)cc2C1=O)[C@H]1CC1(F)F` [Example 148, (1R)-2,2-difluoro-N-((1R,2R)-2-(1-oxo-6-(5-(trifluoromethyl)-1,2,4-oxadiazol-3-yl)-1,3-dihydro-2H-isoindol-2-yl)cyclohexyl) cyclopropanecarboxamide], the inhibition at 1 µM on HDAC9 enzyme turned out to be 82%; on HDAC1 enzyme, 8%; on HDAC6 enzyme, 100%.

Take `O=C(N[C@@H]1COCC[C@H]1N1Cc2ccc(-c3noc(C(F)(F)F)n3)cc2C1=O)[C@@H]1CC1(F)F` [Example 149, (1S)-2,2-difluoro-N-((3S,4R)-4-(1-oxo-6-(5-(trifluoromethyl)-1,2,4-oxadiazol-3-yl)-1,3-dihydro-2H-isoindol-2-yl)tetrahydro-2H-pyran-3-yl)cyclopropanecarboxamide]: the figures for the inhibition at 1 µM on HDAC9 enzyme, at HDAC1 enzyme and at HDAC6 enzyme were 60%, 12% and 100%, respectively.

In the case of `O=C(N[C@@H]1COCC[C@H]1N1Cc2ccc(-c3noc(C(F)(F)F)n3)cc2C1=O)[C@H]1CC1(F)F` [Example 150, (1R)-2,2-difluoro-N-((3S,4R)-4-(1-oxo-6-(5-(trifluoromethyl)-1,2,4-oxadiazol-3-yl)-1,3-dihydro-2H-isoindol-2-yl)tetrahydro-2H-pyran-3-yl)cyclopropanecarboxamide], the values for the inhibition at 1 µM on HDAC9 enzyme, at HDAC1 enzyme and on HDAC6 enzyme were 85%, 13% and 100%, respectively.

In the case of `CC1(C(=O)N[C@@H]2CCC[C@H]2N2Cc3ccc(-c4noc(C(F)(F)F)n4)cc3C2=O)COC1` [Example 151, 3-methyl-N-((1R,2R)-2-(1-oxo-6-(5-(trifluoromethyl)-1,2,4-oxadiazol-3-yl)-1,3-dihydro-2H-isoindol-2-yl)cyclopentyl)oxetane-3-carboxamide], the figures for the inhibition at 1 µM on HDAC9 enzyme, at HDAC1 enzyme and at HDAC6 enzyme were 42%, 16% and 35%, respectively.

On to `CC1(C(=O)N[C@H]2CCC[C@@H]2N2Cc3ccc(-c4noc(C(F)(F)F)n4)cc3C2=O)COC1` [Example 152, 3-methyl-N-((1S,2S)-2-(1-oxo-6-(5-(trifluoromethyl)-1,2,4-oxadiazol-3-yl)-1,3-dihydro-2H-isoindol-2-yl)cyclopentyl)oxetane-3-carboxamide], for which the inhibition at 1 µM at HDAC9 enzyme was determined as 38%; on HDAC1 enzyme, 13%; on HDAC6 enzyme, 31%.

`O=C1c2cc(-c3noc(C(F)(F)F)n3)ccc2CN1[C@@H]1CCCC[C@H]1NC(=O)C1(CO)CC1` [Example 153, 1-(hydroxymethyl)-N-((1R,2R)-2-(1-oxo-6-(5-(trifluoromethyl)-1,2,4-oxadiazol-3-yl)-1,3-dihydro-2H-isoindol-2-yl)cyclohexyl) cyclopropanecarboxamide]: the inhibition at 1 µM at HDAC9 enzyme came out at 52%; on HDAC1 enzyme, 6%; at HDAC6 enzyme it was 100%.

With `O=C(NC1CC1)N[C@@H]1CCCC[C@H]1N1Cc2ccc(-c3noc(C(F)(F)F)n3)cc2C1=O` [Example 154, 1-cyclopropyl-3-((1R,2R)-2-(1-oxo-6-(5-(trifluoromethyl)-1,2,4-oxadiazol-3-yl)-1,3-dihydro-2H-isoindol-2-yl)cyclohexyl)urea], the figures for the inhibition at 1 µM at HDAC9 enzyme, at HDAC1 enzyme and at HDAC6 enzyme were 54%, 11% and 100%, respectively.

For the molecule `CN(C(=O)N[C@@H]1CCCC[C@H]1N1Cc2ccc(-c3noc(C(F)(F)F)n3)cc2C1=O)C1CC1` [Example 155, 1-cyclopropyl-1-methyl-3-((1R,2R)-2-(1-oxo-6-(5-(trifluoromethyl)-1,2,4-oxadiazol-3-yl)-1,3-dihydro-2H-isoindol-2-yl)cyclohexyl)urea], the inhibition at 1 µM was determined as 54% at HDAC9 enzyme, 14% on HDAC1 enzyme and 100% on HDAC6 enzyme.

For the molecule `O=C(N[C@@H]1CCCC[C@H]1N1Cc2ccc(-c3noc(C(F)(F)F)n3)cc2C1=O)N1CC2CC1CO2` (stereo partly drawn) [Example 156, N-((1R,2R)-2-(1-oxo-6-(5-(trifluoromethyl)-1,2,4-oxadiazol-3-yl)-1,3-dihydro-2H-isoindol-2-yl)cyclohexyl)-2-oxa-5-azabicyclo[2.2.1]heptane-5-carboxamide], the results for the inhibition at 1 µM on HDAC9 enzyme and on HDAC6 enzyme were 8% and 96%, respectively. Also, the “HDAC1 inhibitory rate (%) (1 μM)” value at HDAC1 enzyme is recorded as −1%.

As for `O=C(N[C@@H]1CCCC[C@H]1N1Cc2ccc(-c3noc(C(F)(F)F)n3)cc2C1=O)N1CC2CC1CO2` (stereo partly drawn) [Example 157, N-((1R,2R)-2-(1-oxo-6-(5-(trifluoromethyl)-1,2,4-oxadiazol-3-yl)-1,3-dihydro-2H-isoindol-2-yl)cyclohexyl)-2-oxa-5-azabicyclo[2.2.1]heptane-5-carboxamide], on HDAC9 enzyme (1 µM), the “HDAC9 inhibitory rate (%) (1 μM)” value is given as 15%. For the same molecule, the “HDAC1 inhibitory rate (%) (1 μM)” value at HDAC1 enzyme is listed as −2%. Moreover, the “HDAC6 inhibitory rate (%) (1 μM)” value on HDAC6 enzyme worked out at 96%.

Turning to `O=C(N[C@@H]1CCCC[C@H]1N1Cc2ccc(-c3noc(C(F)(F)F)n3)cc2C1=O)N1CCCC1` [Example 158, N-((1R,2R)-2-(1-oxo-6-(5-(trifluoromethyl)-1,2,4-oxadiazol-3-yl)-1,3-dihydro-2H-isoindol-2-yl)cyclohexyl)pyrrolidine-1-carboxamide], the results for the inhibition at 1 µM at HDAC9 enzyme, at HDAC1 enzyme and at HDAC6 enzyme were 34%, 4% and 99%, respectively.

Take `O=C(N[C@@H]1CCCC[C@H]1N1Cc2ccc(-c3noc(C(F)(F)F)n3)cc2C1=O)N1CCC1` [Example 159, N-((1R,2R)-2-(1-oxo-6-(5-(trifluoromethyl)-1,2,4-oxadiazol-3-yl)-1,3-dihydro-2H-isoindol-2-yl)cyclohexyl)azetidine-1-carboxamide]: the inhibition at 1 µM on HDAC9 enzyme came to 39%; on HDAC1 enzyme it was 5%; at HDAC6 enzyme, 98%.

As for `N#CC12CC(C(=O)N[C@@H]3CCCC[C@H]3N3Cc4ccc(-c5noc(C(F)(F)F)n5)cc4C3=O)(C1)C2` [Example 160, 3-cyano-N-((1R,2R)-2-(1-oxo-6-(5-(trifluoromethyl)-1,2,4-oxadiazol-3-yl)-1,3-dihydro-2H-isoindol-2-yl)cyclohexyl)bicyclo[1.1.1]pentane-1-carboxamide], the inhibition at 1 µM on HDAC9 enzyme was found to be 38%; on HDAC1 enzyme, 11%; on HDAC6 enzyme, 99%.
